In US20250313535A1, “ALPHA 4 BETA 7 INTEGRIN MODULATORS AND USES THEREOF” (DICE MOLECULES SV, INC., priority 2022, published 2025):

The compounds below were run against α4β7 integrin (Homo sapiens (Human), UniProt P13612+P26010) (assay: Integrin Adhesion Assay: Protocol 1 (MAdCAM-coated plate, RPMI-8866 cells, CellTiter GLO readout)).
Assay type: cell-based
Protocol: α4β7 and α4β1 inhibition was evaluated in vitro using at least one of the following procedures:
Integrin Adhesion Assay: Protocol 1
MAdCAM (R&D Systems, 0.1 ug) was diluted in 50 μL PBS, added to each well of an opaque ELISA plate (Thermo), and incubated overnight at 4° C. Coated plates were washed once with PBS and then blocked with 200 μL of assay buffer (10 mM HEPES, 150 mM NaCl, 1 mM MnCl2, 0.1 mM CaCl2), 1% BSA) for 1 hour at 37° C. and 5% CO2. After incubation, buffer was aspirated from the plates and 50 μL of fresh assay buffer is added. Compounds were added by a compouns dispenser (Tecan) and DMSO concentration was normalized to 1% across each plate. 50 μL of RPMI-8866 cells (2×10^6 per mL) were added to each well and the plates were incubated for 1 hour at 37° C. and 5% CO2. After incubation, plates were allowed to cool to RT for 10 minutes before being washed four times in assay buffer by an automated plate washer (BioTek). After washing, 100 μL of a 1:1 mixture of assay buffer and CellTiter GLO 2.0 reagent (Promega) were added to each well. Plates were mixed for 2 minutes at 1000 rpm and then allowed to incubate an additional 10 minutes before reading out luminescence on a Tecan Spark plate reader. Raw data was converted to percent inhibition based on DMSO only and control compound wells, and curves were analyzed by 4-parameter fit within Dotmatics software.

α4β7 integrin, sequence (P13612 34-1032): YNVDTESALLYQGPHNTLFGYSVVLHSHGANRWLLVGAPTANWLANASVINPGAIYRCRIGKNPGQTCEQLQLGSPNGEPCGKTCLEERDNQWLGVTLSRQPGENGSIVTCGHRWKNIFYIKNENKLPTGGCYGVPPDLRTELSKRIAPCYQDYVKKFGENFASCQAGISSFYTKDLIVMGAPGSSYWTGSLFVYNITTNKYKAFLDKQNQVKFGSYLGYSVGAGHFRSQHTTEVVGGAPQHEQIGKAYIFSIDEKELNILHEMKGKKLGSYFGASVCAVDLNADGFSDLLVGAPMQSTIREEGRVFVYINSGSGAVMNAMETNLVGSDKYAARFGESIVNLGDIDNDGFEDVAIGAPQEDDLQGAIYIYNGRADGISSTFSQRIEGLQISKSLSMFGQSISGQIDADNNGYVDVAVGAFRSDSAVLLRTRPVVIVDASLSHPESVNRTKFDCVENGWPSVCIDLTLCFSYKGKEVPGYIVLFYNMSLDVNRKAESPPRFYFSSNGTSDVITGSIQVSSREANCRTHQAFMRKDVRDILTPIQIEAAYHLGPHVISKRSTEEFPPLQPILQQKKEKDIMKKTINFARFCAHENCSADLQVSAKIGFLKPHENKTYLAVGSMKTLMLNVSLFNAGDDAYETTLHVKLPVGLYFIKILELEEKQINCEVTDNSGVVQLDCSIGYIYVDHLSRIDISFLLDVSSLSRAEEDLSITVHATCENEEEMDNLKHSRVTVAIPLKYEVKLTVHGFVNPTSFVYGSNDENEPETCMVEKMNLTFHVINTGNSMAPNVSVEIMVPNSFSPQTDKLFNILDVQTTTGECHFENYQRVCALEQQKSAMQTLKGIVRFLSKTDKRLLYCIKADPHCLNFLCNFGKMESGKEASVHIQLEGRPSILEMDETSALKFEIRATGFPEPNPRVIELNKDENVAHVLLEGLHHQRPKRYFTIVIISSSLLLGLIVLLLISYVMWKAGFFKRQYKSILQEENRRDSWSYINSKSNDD
α4β7 integrin, sequence (P26010 20-798): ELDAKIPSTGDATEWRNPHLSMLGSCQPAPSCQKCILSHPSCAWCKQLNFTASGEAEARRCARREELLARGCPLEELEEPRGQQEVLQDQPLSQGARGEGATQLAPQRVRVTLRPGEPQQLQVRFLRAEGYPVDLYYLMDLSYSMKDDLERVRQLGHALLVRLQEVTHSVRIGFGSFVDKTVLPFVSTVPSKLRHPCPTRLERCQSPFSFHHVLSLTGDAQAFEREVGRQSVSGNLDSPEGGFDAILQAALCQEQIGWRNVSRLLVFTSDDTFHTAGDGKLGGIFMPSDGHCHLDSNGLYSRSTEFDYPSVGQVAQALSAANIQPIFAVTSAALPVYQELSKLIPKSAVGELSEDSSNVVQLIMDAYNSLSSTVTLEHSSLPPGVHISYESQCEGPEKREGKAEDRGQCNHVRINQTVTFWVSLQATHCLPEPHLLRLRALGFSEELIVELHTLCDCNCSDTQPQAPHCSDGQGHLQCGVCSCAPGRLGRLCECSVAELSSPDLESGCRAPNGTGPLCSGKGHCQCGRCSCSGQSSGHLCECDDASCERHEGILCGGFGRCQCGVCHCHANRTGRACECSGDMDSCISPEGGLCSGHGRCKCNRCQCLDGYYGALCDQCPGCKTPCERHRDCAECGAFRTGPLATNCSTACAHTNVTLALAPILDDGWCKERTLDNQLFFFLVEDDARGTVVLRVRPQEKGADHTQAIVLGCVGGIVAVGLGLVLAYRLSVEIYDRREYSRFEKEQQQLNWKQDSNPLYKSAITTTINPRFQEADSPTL

Row | SMILES | IC50
1 | Cc1cccc(C)c1-c1cc(F)c(C(=O)N[C@@H](Cc2cccc3c(-c4c(C(F)(F)F)c5ccccc5n(C)c4=O)cccc23)C(=O)O)c(F)c1 [Compound 304] | > 1 µM
2 | Cc1cccc(C)c1-c1cc(F)c(F)c(C(=O)N[C@@H](Cc2cccc3c(-c4c(C(F)(F)F)c5ccccc5n(C)c4=O)cccc23)C(=O)O)c1 [Compound 306] | > 1 µM
3 | Cn1c(=O)c(-c2cccc3c(C[C@H](NC(=O)c4c(F)cc(N5CCC[C@@H]5C(F)(F)F)cc4F)C(=O)O)cccc23)c(C(F)(F)F)c2ccccc21 [Compound 319] | 0.1 to 1 µM
4 | Cn1c(=O)c(-c2cccc3c(C[C@H](NC(=O)c4c(F)cc5[nH]c(CC(F)(F)F)nc5c4F)C(=O)O)cccc23)c(C(F)(F)F)c2ccccc21 [Compound 320] | 0.1 to 1 µM
5 | Cn1c(=O)c(-c2cccc3c(C[C@H](Nc4nccc(N5CCOC[C@@H]5C(F)(F)F)c4F)C(=O)O)cccc23)c(C(F)(F)F)c2ccccc21 [Compound 326] | > 1 µM
6 | Cc1c(C(=O)N[C@@H](Cc2cccc3c(-c4c(C(F)(F)F)c5ccccc5n(C)c4=O)cccc23)C(=O)O)nn2ccccc12 [Compound 329] | > 1 µM
7 | Cn1c(=O)c(-c2cccc3c(C[C@H](NC(=O)c4c(F)cc(N5CCO[C@H](c6ccccc6)C5)cc4F)C(=O)O)cccc23)c(C(F)(F)F)c2ccccc21 [Compound 333] | > 1 µM
8 | Cn1c(=O)c(-c2cccc3c(C[C@H](NC(=O)c4c(F)cc(N5CCOC[C@H]5c5ccccc5)cc4F)C(=O)O)cccc23)c(C(F)(F)F)c2ccccc21 [Compound 334] | > 1 µM
9 | CC(C)[C@H]1COCCN1c1cc(F)c(C(=O)N[C@@H](Cc2cccc3c(-c4c(C(F)(F)F)c5ccccc5n(C)c4=O)cccc23)C(=O)O)c(F)c1 [Compound 337] | 0.1 to 1 µM
10 | Cn1c(=O)c(-c2cccc3c(C[C@H](NC(=O)c4c(F)cc(N5CCO[C@@H](c6ccccc6)C5)cc4F)C(=O)O)cccc23)c(C(F)(F)F)c2ccccc21 [Compound 338] | > 1 µM
11 | Cn1c(=O)c(-c2cccc3c(C[C@H](NC(=O)c4c(F)cc(N5CCOC6(CCC6)C5)cc4F)C(=O)O)cccc23)c(C(F)(F)F)c2ccccc21 [Compound 340] | 0.1 to 1 µM
12 | Cn1c(=O)c(-c2cccc3c(C[C@H](NC(=O)c4c(F)cc(N5CCOC(c6cccc(C(F)(F)F)c6)C5)cc4F)C(=O)O)cccc23)c(C(F)(F)F)c2ccccc21 (some centres unmarked) [Compound 342] | > 1 µM
13 | Cn1c(=O)c(-c2cccc3c(C[C@H](NC(=O)c4c(F)cc(N5CCOc6ccc(C(F)(F)F)cc65)cc4F)C(=O)O)cccc23)c(C(F)(F)F)c2ccccc21 [Compound 343] | > 1 µM
14 | Cn1c(=O)c(-c2cccc3c(C[C@H](NC(=O)c4c(F)cc(N5CCOCC5c5ccc(C(F)(F)F)cc5)cc4F)C(=O)O)cccc23)c(C(F)(F)F)c2ccccc21 (some centres unmarked) [Compound 344] | > 1 µM
15 | Cn1c(=O)c(-c2cccc3c(C[C@H](NC(=O)c4c(F)cc(-c5ccc(F)c(Cl)c5)cc4F)C(=O)O)cccc23)c(C(F)(F)F)c2ccccc21 [Compound 345] | > 1 µM
16 | Cn1c(=O)c(-c2cccc3c(C[C@H](NC(=O)c4c(F)cc5cn(CC(F)(F)F)nc5c4F)C(=O)O)cccc23)c(C(F)(F)F)c2ccccc21 [Compound 348] | 0.1 to 1 µM
17 | Cc1cccc(C)c1-c1nc(C(=O)N[C@@H](Cc2cccc3c(-c4c(C(F)(F)F)c5ccccc5n(C)c4=O)cccc23)C(=O)O)c(C)n1C [Compound 349] | > 1 µM
18 | CN1CC(C)(Cc2cc(F)c(C(=O)N[C@@H](Cc3cccc4c(-c5c(C(F)(F)F)c6ccccc6n(C)c5=O)cccc34)C(=O)O)c(F)c2)C1 [Compound 369] | > 1 µM
19 | Cn1c(=O)c(-c2cccc3c(C[C@H](NC(=O)c4c(F)cc(OC(F)(F)F)cc4F)C(=O)O)cccc23)c(C(F)(F)F)c2ccccc21 [Compound 370] | > 1 µM

Continued, values first:

Row | IC50 | SMILES
20 | > 1 µM | Cn1c(=O)c(-c2cccc3c(C[C@H](NC(=O)c4c(F)cc(C5CCCCC5)cc4F)C(=O)O)cccc23)c(C(F)(F)F)c2ccccc21 [Compound 376]
21 | > 1 µM | Cn1c(=O)c(-c2cccc3c(C[C@H](NC(=O)c4c(F)ccc(C5CCCCC5)c4F)C(=O)O)cccc23)c(C(F)(F)F)c2ccccc21 [Compound 377]
22 | 0.1 to 1 µM | Cn1c(=O)c(-c2cccc3c(C[C@H](NC(=O)c4c(F)cc(N5CCC(F)(F)CC5)cc4F)C(=O)O)cccc23)c(C(F)(F)F)c2ccccc21 [Compound 379]
23 | 0.1 to 1 µM | CN1CCC(c2cc(F)c(C(=O)N[C@@H](Cc3cccc4c(-c5c(C(F)(F)F)c6ccccc6n(C)c5=O)cccc34)C(=O)O)c(F)c2)CC1 [Compound 383]
24 | > 1 µM | Cn1c(=O)c(-c2cccc3c(C[C@H](NC(=O)C45CC(N6CCC(F)(F)CC6)(C4)C5)C(=O)O)cccc23)c(C(F)(F)F)c2ccccc21 [Compound 391]
25 | 0.01 to 0.1 µM | Cn1c(=O)c(-c2cccc3c(C[C@H](NC(=O)c4c(F)cc(N(CC5COC5)C5COC5)cc4F)C(=O)O)cccc23)c(C(F)(F)F)c2ccccc21 [Compound 394]
26 | 0.1 to 1 µM | Cn1c(=O)c(-c2cccc3c(C[C@H](NC(=O)c4c(F)cc(N5CC(F)C5)cc4F)C(=O)O)cccc23)c(C(F)(F)F)c2ccccc21 [Compound 395]
27 | 0.01 to 0.1 µM | Cn1c(=O)c(-c2cccc3c(C[C@H](NC(=O)c4c(F)cc(N5CCS(=O)(=O)CC5)cc4F)C(=O)O)cccc23)c(C(F)(F)F)c2ccccc21 [Compound 398]
28 | > 1 µM | Cn1c(C(F)(F)F)cc(C(F)(F)F)c(-c2cccc3c(C[C@H](NC(=O)[C@]4(C)CC[C@H](N5CCC(F)(F)CC5)CC4)C(=O)O)cccc23)c1=O [Compound 406]
29 | > 1 µM | Cn1c(=O)c(-c2cccc3c(C[C@H](NC(=O)c4c(F)cc([C@H]5C[C@H](N(C)C)C5)cc4F)C(=O)O)cccc23)c(C(F)(F)F)c2ccccc21 [Compound 417]
30 | > 1 µM | COc1ccn2nc(C(=O)N[C@@H](Cc3cccc4c(-c5c(C(F)(F)F)c6ccccc6n(C)c5=O)cccc34)C(=O)O)cc2c1 [Compound 427]
31 | > 1 µM | Cn1c(=O)c(-c2cccc3c(C[C@H](NC(=O)c4cc5ccc(N6CC(F)(F)C6)cn5n4)C(=O)O)cccc23)c(C(F)(F)F)c2ccccc21 [Compound 428]
32 | > 1 µM | Cn1c(=O)c(-c2cccc3c(C[C@H](NC(=O)c4cc5ccc(N6CC(F)C6)cn5n4)C(=O)O)cccc23)c(C(F)(F)F)c2ccccc21 [Compound 429]
33 | > 1 µM | Cn1c(=O)c(-c2cccc3c(CC(Nc4nccc5cccc(F)c45)C(=O)O)cccc23)c(C(F)(F)F)c2ccccc21 (centres unmarked) [Compound 437]
34 | 0.01 to 0.1 µM | Cn1ccc(C(F)(F)F)c(-c2cccc3c(C[C@H](NC(=O)c4c(F)cc(N5CC(F)(F)OC(F)(F)C5)cc4F)C(=O)O)cccc23)c1=O [Compound 441]
35 | > 1 µM | COCC1CCN(c2cc(F)c(C(=O)N[C@@H](Cc3cccc4c(-c5c(C(F)(F)F)c6ccccc6n(C)c5=O)cccc34)C(=O)O)c(F)c2)C1 (some centres unmarked) [Compound 463]
36 | 0.1 to 1 µM | CO[C@@H]1C[C@@H](c2cc(F)c(C(=O)N[C@@H](Cc3cccc4c(-c5c(C(F)(F)F)c6ccccc6n(C)c5=O)cccc34)C(=O)O)c(F)c2)N(C)C1 [Compound 464]
37 | 0.1 to 1 µM | CO[C@@H]1C[C@H](c2cc(F)c(C(=O)N[C@@H](Cc3cccc4c(-c5c(C(F)(F)F)c6ccccc6n(C)c5=O)cccc34)C(=O)O)c(F)c2)N(C)C1 [Compound 465]
38 | > 1 µM | CN(C)Cc1ccc2c(-c3cccc4c(C[C@H](NC(=O)[C@]5(C)CC[C@H](N6CCC(F)(F)CC6)CC5)C(=O)O)cccc34)nccc2c1 [Compound 586]
